# Reference: patent US5550109A, “Inducible defensin peptide from mammalian epithelia” (priority 1994, dated 1996)
# Bridges are numbered along the chain shown (N, C = ends). Where no end group is shown, it is not given here. [ ]: non-standard residue; d: D form. pGlu = O=C1CC[C@@H](C(=O)O)N1
# What was measured:
# Experiment in all cases: Minimum inhibitory concentration, 96 well microtitre plate
# Format in all cases: cell-based
# [1] = tested on: Staphylococcus aureus (29213); details: Staphylococcus aureus (ATCC 29213); 1/4 strength TSB, 1×10^5 /ml
# Description: (§1) Antimicrobial activity was determined during the purification process. Approximately 2.5 ml fractions from the P-30 gel filtration column were assessed after drawing fractions and taking an aliquot of the fraction and spotting that fraction on a radial diffusion plate as described by Zasloff, M. (Proc. Natl. Acad. Sci USA 84: 5449-5453, 1987) against E. coli D31 or fungal pathogens such as Candida albicans, Candida tropicalis, or Staphylococcus aureus. (See also, Zasloff et al., Proc. Natl. Acad. Sci. USA 85: 910-913, 1988.) (FIGS. 1B and 1C.) Briefly, the minimal inhibitory concentrations (MIC's) were assessed using a 96 well microtitre plate (Corning Glass Works, Corning, N.Y.). Microorganisms were grown in log phase at 1/4 strength tryptics soy broth (TSB) at a density of 1×10^5 /ml. The assays used 1/4 strength TSB. For each organism, dilutions of peptide were made ranging from >500 μg/ml to 1 μg/ml using 1/4 strength TSB as a dilution buffer. Zones of bacterial growth or lack of growth were assessed under the microscope. MIC's were calculated based the lowest concentration of peptide that inhibited growth.
# Escherichia coli (D31) = details: 1/4 strength TSB, 1×10^5 /ml
# Description: as §1
# [2] = tested on: Pseudomonas aeruginosa (27853); details: Pseudomonas aeruginosa (ATCC 27853); 1/4 strength TSB, 1×10^5 /ml
# Description: as §1
# [3] = tested on: Candida tropicalis (13803); details: Candida tropicalis (ATCC 13803); 1/4 strength TSB, 1×10^5 /ml
# Description: as §1
# Candida albicans (14053) = details: Candida albicans (ATCC 14053); 1/4 strength TSB, 1×10^5 /ml
# Description: as §1
Substance,Minimum Inhibitory Concentration [1] [µg/mL],Minimum Inhibitory Concentration (Escherichia coli (D31)) [µg/mL],Minimum Inhibitory Concentration [2] [µg/mL],Minimum Inhibitory Concentration [3] [µg/mL],Minimum Inhibitory Concentration (Candida albicans (14053)) [µg/mL]
"[pGlu]GVRNSQSCRRNKGICVPIRCPGSMRQIGTCLGAQVKCCRRK (disulfide 9-38, 16-31, 21-39) [LAP, lingual antimicrobial peptide]",63 to 125,16 to 32,63 to 125,16 to 32,32 to 63
Magainin II-amide,50 to 100,13 to 25,13 to 25,13 to 25,50 to 100
